# Results: paper doi:10.1101/2023.11.24.568596v1 (biorxiv, 2023)
# Key:
# Details in all cases: binder
# CaMK2b = CaMK2b (Homo sapiens, UniProt Q13554)
# Erk7 = target: T1, Erk7 (Homo sapiens, UniProt Q8TD08)
# T1 sequence (Q8TD08 1-544): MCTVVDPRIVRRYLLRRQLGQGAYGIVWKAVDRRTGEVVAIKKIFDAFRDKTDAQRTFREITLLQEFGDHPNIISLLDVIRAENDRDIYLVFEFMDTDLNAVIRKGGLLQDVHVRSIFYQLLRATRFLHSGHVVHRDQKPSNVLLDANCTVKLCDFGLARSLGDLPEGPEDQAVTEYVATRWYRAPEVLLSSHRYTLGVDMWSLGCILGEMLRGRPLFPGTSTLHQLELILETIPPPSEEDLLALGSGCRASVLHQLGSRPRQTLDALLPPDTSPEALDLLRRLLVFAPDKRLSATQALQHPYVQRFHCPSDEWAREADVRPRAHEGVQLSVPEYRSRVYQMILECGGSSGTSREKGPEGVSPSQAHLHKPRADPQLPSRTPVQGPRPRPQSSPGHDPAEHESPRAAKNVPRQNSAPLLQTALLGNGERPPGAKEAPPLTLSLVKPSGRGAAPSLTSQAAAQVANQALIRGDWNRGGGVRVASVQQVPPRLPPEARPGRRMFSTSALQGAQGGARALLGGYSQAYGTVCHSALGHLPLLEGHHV
# CASK = target: T2, CASK (Homo sapiens, UniProt O14936)
# T2 sequence (O14936 1-926): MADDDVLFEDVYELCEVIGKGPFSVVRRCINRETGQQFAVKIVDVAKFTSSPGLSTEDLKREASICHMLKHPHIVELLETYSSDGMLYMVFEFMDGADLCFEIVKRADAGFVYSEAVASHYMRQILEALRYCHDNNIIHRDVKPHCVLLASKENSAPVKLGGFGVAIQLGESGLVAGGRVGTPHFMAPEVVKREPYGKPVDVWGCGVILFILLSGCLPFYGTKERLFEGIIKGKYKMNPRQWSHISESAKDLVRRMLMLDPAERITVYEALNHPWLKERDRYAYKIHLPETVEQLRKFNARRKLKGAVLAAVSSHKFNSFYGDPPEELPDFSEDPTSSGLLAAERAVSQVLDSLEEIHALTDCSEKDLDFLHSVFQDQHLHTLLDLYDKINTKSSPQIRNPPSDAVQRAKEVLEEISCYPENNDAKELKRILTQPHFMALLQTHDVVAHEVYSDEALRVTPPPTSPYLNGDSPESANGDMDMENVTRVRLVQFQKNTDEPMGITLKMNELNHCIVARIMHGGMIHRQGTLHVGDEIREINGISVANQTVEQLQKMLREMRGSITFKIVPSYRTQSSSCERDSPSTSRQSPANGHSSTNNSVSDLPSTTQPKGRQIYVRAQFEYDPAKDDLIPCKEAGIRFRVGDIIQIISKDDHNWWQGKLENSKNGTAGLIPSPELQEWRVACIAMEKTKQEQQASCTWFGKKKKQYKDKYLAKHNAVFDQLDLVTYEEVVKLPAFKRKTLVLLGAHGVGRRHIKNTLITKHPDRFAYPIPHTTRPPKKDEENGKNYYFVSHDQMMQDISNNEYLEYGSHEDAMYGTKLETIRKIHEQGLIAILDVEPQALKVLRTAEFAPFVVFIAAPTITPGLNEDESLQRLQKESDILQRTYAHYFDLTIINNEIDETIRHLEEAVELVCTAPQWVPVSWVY
# MAP2K4 = target: T3, MAP2K4 (Homo sapiens, UniProt P45985)
# T3 sequence (P45985 1-399): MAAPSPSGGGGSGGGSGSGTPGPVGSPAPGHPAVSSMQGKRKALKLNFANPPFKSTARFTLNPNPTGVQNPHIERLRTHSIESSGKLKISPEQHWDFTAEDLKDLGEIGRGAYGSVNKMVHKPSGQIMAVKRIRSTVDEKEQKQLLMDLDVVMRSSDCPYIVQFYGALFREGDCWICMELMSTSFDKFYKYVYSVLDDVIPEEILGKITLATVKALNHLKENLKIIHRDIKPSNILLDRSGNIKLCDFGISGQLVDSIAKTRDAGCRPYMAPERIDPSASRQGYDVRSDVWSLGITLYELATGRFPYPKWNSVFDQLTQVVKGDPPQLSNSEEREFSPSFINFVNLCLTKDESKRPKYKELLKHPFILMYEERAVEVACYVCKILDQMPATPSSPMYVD
# VRK1 = target: T4, VRK1 (Homo sapiens, UniProt Q99986)
# T4 sequence (Q99986 1-396): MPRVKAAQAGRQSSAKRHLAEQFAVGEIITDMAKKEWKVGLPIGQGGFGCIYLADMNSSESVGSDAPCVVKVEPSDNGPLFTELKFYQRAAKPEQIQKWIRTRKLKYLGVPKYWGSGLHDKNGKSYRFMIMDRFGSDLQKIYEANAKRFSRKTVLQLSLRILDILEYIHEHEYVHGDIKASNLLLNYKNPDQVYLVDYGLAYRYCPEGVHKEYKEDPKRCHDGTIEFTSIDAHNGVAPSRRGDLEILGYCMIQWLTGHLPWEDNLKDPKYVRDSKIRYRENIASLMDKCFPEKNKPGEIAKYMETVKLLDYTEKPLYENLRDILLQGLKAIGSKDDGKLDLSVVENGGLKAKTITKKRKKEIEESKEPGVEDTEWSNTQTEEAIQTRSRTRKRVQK
# Sequence of CaMK2b (Q13554 whole entry): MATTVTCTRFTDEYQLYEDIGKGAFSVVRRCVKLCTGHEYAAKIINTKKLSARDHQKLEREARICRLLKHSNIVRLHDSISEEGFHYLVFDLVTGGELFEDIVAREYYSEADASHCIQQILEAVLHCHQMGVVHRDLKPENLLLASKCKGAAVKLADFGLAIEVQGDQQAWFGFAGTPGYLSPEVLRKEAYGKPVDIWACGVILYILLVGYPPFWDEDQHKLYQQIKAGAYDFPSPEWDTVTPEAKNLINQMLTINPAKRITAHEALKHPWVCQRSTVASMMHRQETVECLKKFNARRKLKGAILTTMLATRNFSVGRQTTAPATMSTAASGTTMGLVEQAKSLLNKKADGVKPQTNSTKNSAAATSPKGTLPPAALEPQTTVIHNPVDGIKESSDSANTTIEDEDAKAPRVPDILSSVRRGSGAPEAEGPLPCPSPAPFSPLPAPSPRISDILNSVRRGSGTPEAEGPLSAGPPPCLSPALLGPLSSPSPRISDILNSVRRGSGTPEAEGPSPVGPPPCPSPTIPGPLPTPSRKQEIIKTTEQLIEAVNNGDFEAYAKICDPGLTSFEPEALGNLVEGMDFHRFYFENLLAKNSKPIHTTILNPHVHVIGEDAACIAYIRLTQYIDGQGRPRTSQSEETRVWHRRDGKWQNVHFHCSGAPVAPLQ
smiles,measurement,setting,value
"COc1cc(N2CCN(C)CC2)ccc1Nc1ncc2cc(-c3ccc(-c4cccc(C)n4)cc3Cl)c(=O)n(CCCCN)c2n1 [compound 36, 8-(4-Aminobutyl)-6-(2-chloro-4-(6-methylpyridin-2-yl)phenyl)-2-((2-methoxy-4-(4-methylpiperazin-1-yl)phenyl)amino)pyrido[2,3-d]pyrimidin-7(8H)-one]",dTm 36,CaMK2b,-0.6 °C
same,dTm 36,Erk7,-0.5 °C
same,dTm 36,CASK,-0.4 °C
same,dTm 36,MAP2K4,6.9 °C
same,dTm 36,VRK1,0.1 °C
"COc1cc(N2CCOCC2)ccc1Nc1ncc2cc(-c3ccc(-c4cccc(C)n4)cc3Cl)c(=O)n(CCCCN)c2n1 [compound 35, 8-(4-Aminobutyl)-6-(2-chloro-4-(6-methylpyridin-2-yl)phenyl)-2-((2-methoxy-4-morpholino-phenyl)amino)pyrido[2,3-d]pyrimidin-7(8H)-one]",dTm 35,CaMK2b,-1.4 °C
same,dTm 35,Erk7,1.1 °C
same,dTm 35,CASK,0.0 °C
same,dTm 35,MAP2K4,7.6 °C
same,dTm 35,VRK1,-0.2 °C
"Cc1cccc(-c2ccc(-c3cc4cnc(Nc5ccc(F)c(CO)c5)nc4n(CCCCN)c3=O)c(Cl)c2)n1 [compound 33, 8-(4-Aminobutyl)-6-(2-chloro-4-(6-methylpyridin-2-yl)phenyl)-2-((4-fluoro-3-(hydroxymethyl)phenyl)amino)pyrido[2,3-d]pyrimidin-7(8H)-one]",dTm 33,CaMK2b,-0.2 °C
same,dTm 33,Erk7,1.6 °C
same,dTm 33,CASK,0.2 °C
same,dTm 33,MAP2K4,10.0 °C
same,dTm 33,VRK1,0.4 °C
"COc1ccc(O)c(Nc2ncc3cc(-c4ccc(-c5cccc(C)n5)cc4Cl)c(=O)n(CCCCN)c3n2)c1 [compound 34, 8-(4-Aminobutyl)-6-(2-chloro-4-(6-methylpyridin-2-yl)phenyl)-2-((2-hydroxy-5-methoxy-phenyl)amino)pyrido[2,3-d]pyrimidin-7(8H)-one]",dTm 34,CaMK2b,-0.8 °C
same,dTm 34,Erk7,-0.4 °C
same,dTm 34,CASK,-0.2 °C
same,dTm 34,MAP2K4,8.0 °C
same,dTm 34,VRK1,0.0 °C
